Data reported in PubChem BioAssay (NCI).
Where “and” joins values, the source holds several entries; their conditions need not be identical. Equal entries are not always repeated.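 1) Cells in 96-well plates. 2) Compound, 48 h, 5 concentrations. 3) Linear interpolation between surrounding doses. 4) Unreached endpoint = highest concentration. The concentration for 50% growth inhibition is given as GI50. TGI denotes the concentration required for complete inhibition of growth.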

Key:
Assay in all cases: NCI tumour cell line growth inhibition, 48 h
[1] = test system: LXFL 529 NSCLC
[2] = test system: DMS 114 small cell lung
[3] = test system: DLD-1 colon
[4] = test system: DMS 273 small cell lung
[5] = test system: SNB-78 CNS
[6] = test system: RXF-631 renal
[7] = test system: XF 498 CNS
[8] = test system: P388 leukemia
[9] = test system: HOP-18 NSCLC
[10] = test system: P388/ADR leukemia

## O=c1c2cc(Cl)ccc2n2nnc3ccc(NCCNCCO)c1c32
[1]
  TGI: 3.51 µM
[2]
  TGI: 3.59 µM
[3]
  TGI: 5.76 µM
[4]
  TGI: 2.45 µM
[5]
  TGI: 9.39 µM
[6]
  TGI: 3.05 µM

## C=C1C(=O)OC2C1CC1OC2C(C)CCC/C(C)=C\CCC1(C)O (configuration not stated)
[7]
  TGI: 38.9 µM
[2]
  TGI: 33 µM
[8]
  TGI: 42.4 µM
[9]
  TGI: 19.7 µM
[3]
  TGI: 64.8 µM
[10]
  TGI: 58.2 µM
[4]
  TGI: 53.1 µM
[5]
  TGI: 42.9 µM

## CC1Oc2c(c(O)cc3oc(=O)cc(-c4ccccc4)c23)C(=O)C1C (configuration not stated)
[1]
  TGI: > 100 µM
[7]
  TGI: > 100 µM
[9]
  TGI: > 100 µM
[3]
  TGI: > 100 µM
[4]
  TGI: > 100 µM
[5]
  TGI: > 100 µM
[6]
  TGI: > 100 µM

## O.O=[Se](=O)(O)O.[NH-]C1CCCCC1[NH-].[Pt+2] (configuration not stated)
[8]
  GI50: 0.433 µM
  TGI: 30.9 µM
[9]
  GI50: > 100 µM
  TGI: > 100 µM
[3]
  GI50: 19 µM
  TGI: > 100 µM
[10]
  GI50: 7.22 µM
  TGI: > 100 µM
[5]
  GI50: 48.4 µM
  TGI: > 100 µM

## C#Cc1ccccc1C(=O)OC
[7]
  TGI: > 100 µM
[2]
  TGI: > 100 µM
[9]
  TGI: > 100 µM
[3]
  TGI: > 100 µM
[4]
  TGI: > 100 µM

## O=C1/C(=C/c2ccc(Cl)c(Cl)c2)CN(C(=O)CCN2CCOCC2)C/C1=C\c1ccc(Cl)c(Cl)c1
[1]
  GI50: 0.499 µM
  TGI: 2.99 µM and 1.63 µM
[2]
  GI50: 0.346 µM
  TGI: 2.34 µM and 1.33 µM
[9]
  GI50: 2.11 µM
  TGI: 5.96 µM and 5.49 µM
[3]
  GI50: 0.245 µM
  TGI: 0.409 µM and 0.785 µM
[4]
  GI50: 0.23 µM
  TGI: 2.37 µM and 0.608 µM
[5]
  GI50: 2.22 µM
  TGI: 9.93 µM and 6.3 µM
[6]
  GI50: 1.99 µM
  TGI: 8.25 µM and 5.87 µM

## COc1cccc2c1C(=O)c1c(O)c3c(c(O)c1C2=O)C[C@](O)(C(=O)CO)CC3OC1CC(N)C(OC2CCCCO2)C(C)O1 (some centres not stated)
[7]
  TGI: 0.684 µM
[8]
  TGI: 0.233 µM
[9]
  TGI: 3 µM
[3]
  TGI: 12.5 µM
[10]
  TGI: > 100 µM
[4]
  TGI: 1.22 µM
[5]
  TGI: 6.02 µM

## COc1ccc(/C(Cl)=C(\C=O)c2ccc(Cl)cc2)cc1
[1]
  TGI: 51 µM
[2]
  TGI: 32.5 µM
[9]
  TGI: > 100 µM
[3]
  TGI: > 100 µM
[4]
  TGI: > 100 µM
[5]
  TGI: > 100 µM
[6]
  TGI: 47.6 µM

## Nc1ncnc2c(C3OC(CO)C(O)C3O)c[nH]c12 (configuration not stated)
[1]
  TGI: 0.189 µM and 0.153 µM
[7]
  TGI: 0.168 µM
[2]
  TGI: 0.0304 µM and 0.0184 µM
[9]
  TGI: 0.497 µM and 1.34 µM
[3]
  TGI: 0.0413 µM
[4]
  TGI: 0.116 µM
[5]
  TGI: 1.12 µM
[6]
  TGI: 0.56 µM and 0.533 µM
